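1) Cells in 96-well plates. 2) Compound, 48 h, 5 concentrations. 3) Linear interpolation between surrounding doses. 4) Unreached endpoint = highest concentration. At the GI50, growth is halved. TGI marks complete inhibition of growth.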 Bounds are passed on as bounds.

Some test systems named below: SK-OV-3 ovarian; PC-3 prostate; NCI-H522 lung; UO-31 renal; SK-MEL-28 melanoma; BT-549 breast; HCT-15 colon; OVCAR-8 ovarian; MDA-MB-231 breast; HOP-92 NSCLC.
What all share (test): inhibition of tumour cell growth, NCI panel, 48 h

Turning to `COc1cc2[nH]c(-c3ccccc3)cc(=O)c2cc1OC`, the TGI is more than 100 µM in the assay with SK-OV-3 ovarian; more than 100 µM in the assay with PC-3 prostate; more than 56.3 µM in the assay with NCI-H522 lung; more than 100 µM in the assay on UO-31 renal; more than 100 µM in the assay on SK-MEL-28 melanoma; more than 100 µM in the assay with BT-549 breast. In addition, the TGI in the assay with HCT-15 colon was 97.9 µM; in the assay on OVCAR-8 ovarian, more than 89.4 µM; in the assay on MDA-MB-231 breast, more than 87.3 µM; in the assay with HOP-92 NSCLC, more than 100 µM.
Turning to `O=C1CSC2(CCN(CCCN3c4ccccc4Sc4ccc(Cl)cc43)CC2)N1`, the TGI in the assay on SK-OV-3 ovarian stood at 21.5 µM; in the assay on PC-3 prostate, 16.9 µM; in the assay with NCI-H522 lung, 23.6 µM; in the assay on UO-31 renal it was 19.5 µM; in the assay with SK-MEL-28 melanoma it was 28.9 µM; in the assay on BT-549 breast, 26.1 µM. The TGI was found to be 20.8 µM in the assay with HCT-15 colon, 23.8 µM in the assay on OVCAR-8 ovarian, 18.8 µM in the assay on MDA-MB-231 breast and 20.3 µM in the assay on HOP-92 NSCLC.
With `NC1CCC(c2cc3ccccc3s2)(N2CCCCC2)CC1` (stereo not given), the TGI in the assay on SK-OV-3 ovarian came to 22.6 µM; in the assay on PC-3 prostate it was 3.59 µM; in the assay on NCI-H522 lung, 4.15 µM; in the assay on UO-31 renal it was 5.94 µM; with SK-MEL-28 melanoma, 3.11 µM; with BT-549 breast it was 3.08 µM. Further, the TGI in the assay with HCT-15 colon was determined as 3.76 µM; with OVCAR-8 ovarian, 3.67 µM; in the assay with MDA-MB-231 breast, 12.9 µM; with HOP-92 NSCLC, 5.15 µM.
For the compound `COc1cc2c(cc1OCCCC(=O)Nc1cc(C(=O)Nc3cc(C(=O)NCCCN(C)C)n(C)n3)n(C)n1)N=CC1CCCN1C2=O` (stereo not given), the TGI with SK-OV-3 ovarian is more than 100 µM; in the assay with PC-3 prostate it was 99.3 µM; in the assay with NCI-H522 lung it was 20.2 µM; in the assay with UO-31 renal, 30.4 µM; in the assay on SK-MEL-28 melanoma it was 30.4 µM; with BT-549 breast, 26.5 µM. Further, the TGI is 37.6 µM with HCT-15 colon, 53.2 µM in the assay on OVCAR-8 ovarian, 39.5 µM with MDA-MB-231 breast and 33.2 µM in the assay on HOP-92 NSCLC.
As for `NNC(=O)c1ccccc1NC(=O)/C(=C/c1ccccc1)NC(=O)c1ccccc1`, the TGI in the assay on SK-OV-3 ovarian, in the assay with PC-3 prostate, in the assay on NCI-H522 lung, in the assay on UO-31 renal, in the assay with SK-MEL-28 melanoma and with BT-549 breast was more than 100 µM in each case. Further, the TGI in the assay on HCT-15 colon, in the assay on OVCAR-8 ovarian, in the assay with MDA-MB-231 breast and with HOP-92 NSCLC was more than 100 µM throughout.
Regarding `O=C(CSc1nc2ccc(I)cc2c(=O)n1Cc1ccccc1)Nc1ccc(Br)cc1`, the TGI with SK-OV-3 ovarian is more than 100 µM; with PC-3 prostate, 58.6 µM; with NCI-H522 lung, more than 100 µM; with UO-31 renal, 0.382 µM; in the assay on SK-MEL-28 melanoma it was more than 100 µM; with BT-549 breast, more than 100 µM. Also, the TGI in the assay with HCT-15 colon was more than 100 µM; with OVCAR-8 ovarian, 36.2 µM; in the assay on MDA-MB-231 breast, 89.7 µM; with HOP-92 NSCLC, more than 100 µM.
On to `COC1CCC(OC2CC(C3(C)CCC4(CC(O)C(C)C(C(C)/C=C(\C)C(=O)C(C)CC(C)C(=O)O)O4)O3)OC3(OC(C4OC(O)(CO)C(C)CC4C)CC3C)C2C)OC1C` (stereo not given), for which the TGI in the assay with SK-OV-3 ovarian is 10.9 µM; in the assay on PC-3 prostate, 3.14 µM; in the assay with NCI-H522 lung, 0.26 µM; in the assay on UO-31 renal it was 5.91 µM; with SK-MEL-28 melanoma it was 0.189 µM; in the assay with BT-549 breast, 1.26 µM. The TGI in the assay with HCT-15 colon was found to be 1.95 µM; in the assay with OVCAR-8 ovarian, 1.87 µM; in the assay on MDA-MB-231 breast, 0.517 µM; in the assay with HOP-92 NSCLC, 2.77 µM.
Turning to `CC1=Nn2c(nc3sc4c(c3c2=O)CCCC4)SC1`, the TGI with SK-OV-3 ovarian, in the assay with PC-3 prostate, in the assay on NCI-H522 lung, with UO-31 renal, in the assay on SK-MEL-28 melanoma and in the assay with BT-549 breast was more than 100 µM throughout. Moreover, the TGI in the assay on HCT-15 colon, with OVCAR-8 ovarian, in the assay on MDA-MB-231 breast and in the assay on HOP-92 NSCLC was more than 100 µM throughout.
Turning to `CC(=O)Nc1ccc(Nc2nc(=O)[nH]c(=O)[nH]2)cc1`, the TGI with SK-OV-3 ovarian, in the assay on PC-3 prostate, in the assay on NCI-H522 lung, with UO-31 renal, in the assay with SK-MEL-28 melanoma and in the assay with BT-549 breast was more than 100 µM in each case. Further, the TGI in the assay on HCT-15 colon, with OVCAR-8 ovarian, in the assay on MDA-MB-231 breast and with HOP-92 NSCLC was more than 100 µM throughout.
Regarding `COc1cc(C2c3cc4c(cc3OC(N3CCOCC3)C2C)OCO4)cc(OC)c1O` (stereo not given), the TGI was more than 50.6 µM in the assay on SK-OV-3 ovarian; more than 86.2 µM in the assay on PC-3 prostate; more than 20.2 µM in the assay with NCI-H522 lung; more than 66.4 µM in the assay with UO-31 renal; more than 48.6 µM in the assay on SK-MEL-28 melanoma; 60.6 µM in the assay on BT-549 breast. Also, the TGI is 25.5 µM in the assay with HCT-15 colon, more than 56.7 µM with OVCAR-8 ovarian, more than 84.2 µM with MDA-MB-231 breast and more than 65.3 µM in the assay with HOP-92 NSCLC.
For the compound `COC(=O)C(Cc1ccccc1)NC(=O)CNC(=O)CSc1nnc(COc2ccc(Cl)cc2)n1-c1ccccc1` (stereo not given), the TGI is 28.6 µM with SK-OV-3 ovarian; 31.3 µM with PC-3 prostate; 5.45 µM with NCI-H522 lung; 3.28 µM with UO-31 renal; 34.6 µM with SK-MEL-28 melanoma; 35.6 µM in the assay with BT-549 breast. Further, the TGI in the assay with HCT-15 colon stood at 36.4 µM; in the assay on OVCAR-8 ovarian it was 27.4 µM; in the assay with MDA-MB-231 breast it was 32.7 µM; in the assay with HOP-92 NSCLC it was 35.3 µM.
With `COc1ccc(-c2cn3ccnc3c(-c3ccc4ncn(C5CCCCC5)c4c3)n2)cc1`, the GI50 was 0.508 µM with SK-OV-3 ovarian; 0.621 µM in the assay on PC-3 prostate; 0.424 µM in the assay on NCI-H522 lung; 1.35 µM with UO-31 renal; 2.1 µM with SK-MEL-28 melanoma; 0.41 µM in the assay with BT-549 breast. In addition, the GI50 with HCT-15 colon is 0.722 µM; in the assay with OVCAR-8 ovarian, 3.16 µM; with MDA-MB-231 breast, 2.83 µM; with HOP-92 NSCLC, 1.18 µM. The TGI is 7.64 µM with SK-OV-3 ovarian; more than 100 µM in the assay with PC-3 prostate; 6.15 µM in the assay with NCI-H522 lung; more than 100 µM with UO-31 renal; more than 100 µM in the assay with SK-MEL-28 melanoma; 3.91 µM with BT-549 breast. Also, the TGI with HCT-15 colon, with OVCAR-8 ovarian, in the assay on MDA-MB-231 breast and in the assay with HOP-92 NSCLC was more than 100 µM throughout.
Turning to `COc1cccc(C2c3cc4c(cc3OC(N3CCOCC3)C2C)OCO4)c1O` (stereo not given), the TGI is 75.6 µM in the assay on SK-OV-3 ovarian; more than 58.6 µM in the assay with PC-3 prostate; 8.39 µM in the assay with NCI-H522 lung; 54.3 µM in the assay on UO-31 renal; more than 61.8 µM in the assay with SK-MEL-28 melanoma; 76.1 µM in the assay on BT-549 breast. The TGI was found to be 27.9 µM in the assay with HCT-15 colon, 60.1 µM with OVCAR-8 ovarian, 47.5 µM in the assay on MDA-MB-231 breast and 71.4 µM in the assay on HOP-92 NSCLC.
As to `C/C(=N/O)c1cccc(Nc2nc3ccccc3c3[nH]c4ccccc4c23)c1`, the TGI in the assay with SK-OV-3 ovarian amounted to 22.1 µM; with PC-3 prostate, 8.05 µM; with NCI-H522 lung it was 4.4 µM; with UO-31 renal, 12 µM; in the assay on SK-MEL-28 melanoma, 12.4 µM; in the assay on BT-549 breast, 34.7 µM. For the same compound, the TGI in the assay with HCT-15 colon is 10.6 µM; in the assay with OVCAR-8 ovarian, more than 24.4 µM; in the assay on MDA-MB-231 breast, 11.5 µM; in the assay on HOP-92 NSCLC, 6.95 µM.
In the case of `COC(=O)c1c(O)ccc2c1c1c(n2C)C(=O)c2ccccc2C1=O`, the TGI was 21.5 µM in the assay with SK-OV-3 ovarian; more than 100 µM in the assay on PC-3 prostate; more than 100 µM with NCI-H522 lung; more than 100 µM with UO-31 renal; more than 100 µM in the assay on SK-MEL-28 melanoma; 45.8 µM in the assay with BT-549 breast. In addition, the TGI in the assay with HCT-15 colon is more than 100 µM; with OVCAR-8 ovarian, more than 100 µM; in the assay with MDA-MB-231 breast, 25.8 µM; in the assay on HOP-92 NSCLC, 21 µM.

(Values after PubChem BioAssay (NCI).)
